Like-named read-outs stand apart in the source and are kept apart here.
Tests used:
[1] = target: T1, RSV ribonucleoprotein (RNP) complexes (Human respiratory syncytial virus A, UniProt P28887); assay: RSV RNP assay (inhibition of RSV RNP transcription); assay type: biochemical, RSV A2; conditions: 90 minute incubation at 30° C., total radiolabeled transcripts
T1 construct: The supernatant (S3) fraction, containing the enriched RSV RNP complexes, was collected; endogenous in cells; host or cells: HEp-2 cells infected with RSV A2; detergent-extracted crude S3 fraction
Method: RSV ribonucleoprotein (RNP) complexes were prepared from a method modified from Mason at al (1). HEp-2 cells were plated at a density of 7.1×10^4 cells/cm^2 in MEM+10% fetal bovine serum (FBS) and allowed to attach overnight at 37° C. (5% CO2). Following attachment, the cells were infected with RSV A2 (M01=5) in 35 mL MEM+2% FBS. At 20 hours post-infection, the media was replaced with MEM+2% FBS supplemented with 2 μg/mL actinomycin D and returned to 37° C. for one hour. The cells were then washed once with PBS and treated with 35 mL of PBS+250 μg/mL lyso-lecithin for one minute, after which all liquid was aspirated. The cells were harvested by scrapping them into 1.2 mL of buffer A [50 mM TRIS acetate (pH 8.0), 100 mM potassium acetate, 1 mM DTT and 2 μg/mL actinomycin D] and lysed by repeated passage through an 18 gauge needle (10 times). The cell lysate was placed in ice for 10 minutes and then centrifuged at 2400g for 10 minutes at 4° C. The supernatant (S1) was removed and the pellet (P1) was disrupted in 600 uL of Buffer B [10 mM TRIS acetate (pH 8.0), 10 mM potassium acetate and 1.5 mM MgCl2] supplemented with 1% Triton X-100 by repeated passage through an 18 gauge needle (10 times). The resuspended pellet was placed in ice for 10 minutes and then centrifuged at 2400g for 10 minutes at 4° C. The supernatant (S2) was removed and the pellet (P2) was disrupted in 600 uL of Buffer B supplemented with 0.5% deoxycholate and 0.1% Tween 40. The resuspended pellet was placed in ice for 10 minutes and then centrifuged at 2400g for 10 minutes at 4° C. The supernatant (S3) fraction, containing the enriched RSV RNP complexes, was collected and the protein concentration determined by UV absorbance at 280 nm. Aliquoted RSV RNP S3 fractions were stored at −80° C.
Transcription reactions contained 25 μg of crude RSV RNP complexes in 30 μL of reaction buffer [50 mM TRIS-acetate (pH 8.0), 120 mM potassium acetate, 5% glycerol, 4.5 mM MgCl2, 3 mM DTT, 2 mM ethyleneglycol-bis(2-aminoethylether)-tetraacetic acid (EGTA), 50 μg/mL BSA, 2.5 U RNasin (Promega), ATP, GTP, UTP, CTP and 1.5 uCi [α-^32P] NTP (3000 Ci/mmol)]. The radiolabeled nucleotide used in the transcription assay was selected to match the nucleotide analog being evaluated for inhibition of RSV RNP transcription. Cold, competitive NTP was added at a final concentration of one-half its Km (ATP=20 μM, GTP=12.5 μM, UTP=6 μM and CTP=2 μM). The three remaining nucleotides were added at a final concentration of 100 μM.
To determine whether nucleotide analogs inhibited RSV RNP transcription, compounds were added using a 6 step serial dilution in 5-fold increments. Following a 90 minute incubation at 30° C., the RNP reactions were stopped with 350 μL of Qiagen RLT lysis buffer and the RNA was purified using a Qiagen RNeasy 96 kit. Purified RNA was denatured in RNA sample loading buffer (Sigma) at 65° C. for 10 minutes and run on a 1.2% agarose/MOPS gel containing 2M formaldehyde. The agarose gel was dried and exposed to a Storm phosphorimager screen and developed using a Storm phosphorimager (GE Healthcare). The concentration of compound that reduced total radiolabeled transcripts by 50% (IC50) was calculated by non-linear regression analysis of two replicates.

[2] = tested on: RSV strain A2; assay: Anti-RSV activity, infectious cytopathic cell protection assay in HEp-2 cells; assay type: cell-based, Respiratory Syncytial Virus (RSV); conditions: human respiratory syncytial virus
Method: Antiviral activity against RSV is determined using an infectious cytopathic cell protection assay in HEp-2 cells. In this assay, compounds inhibiting viral infection and/or replication produce a cytoprotective effect against the virus-induced cell killing that can be quantified using a cell viability reagent. The techniques used here are novel adaptations of methods described in published literature (Chapman et al., Antimicrob Agents Chemother. 2007, 51(9):3346-53.)
HEp-2 cells are obtained from ATCC (Manassas, VI) and maintained in MEM media supplemented with 10% fetal bovine serum and penicillin/streptomycin. Cells are passaged twice a week and kept at subconfluent stage. Commercial stock of RSV strain A2 (Advanced Biotechnologies, Columbia, Md.) is titered before compound testing to determine the appropriate dilution of the virus stock that generates desirable cytopathic effect in HEp-2 cells.
For antiviral tests, HEp-2 cells are grown in large cell culture flasks to near confluency but not fully so. The compounds to be tested are prediluted in DMSO in 384-well compound dilution plates, either in an 8 or 40 sample per plate standardized dose response format. 3-fold serial dilution increments of each test compound are prepared in the plates and test samples are transferred via acoustic transfer apparatus (Echo, Labcyte) at 100 nl per well into cell culture assay 384-well plates. Each compound dilution is transferred in single or quadruplicate samples into dry assay plates, which are stored until assay is ready to go. The positive and negative controls are laid out in opposite on ends of the plate in vertical blocks (1 column).
Subsequently, an infectious mixture is prepared using an appropriate dilution of virus stock previously determined by titration with cells at a density of 50,000/ml and 20 uL/well is added to test plates w/compounds via automation (uFlow, Biotek). Each plate includes negative and positive controls (16 replicates each) to create 0% and 100% virus inhibition standards, respectively. Following the infection with RSV, testing plates are incubated for 4 days in a 37° C. cell culture incubator. After the incubation, a cell viability reagent, Cell TiterGlo (Promega, Madison, Wis.) is added to the assay plates, which are incubated briefly, and a luminescent readout is measured (Envision, Perkin Elmer) in all the assay plates. The RSV-induced cytopathic effect, percentage inhibition, is determined from the levels of remaining cell viability. These numbers are calculated for each tested concentration relative to the 0% and 100% inhibition controls, and the EC50 value for each compound is determined by non-linear regression as a concentration inhibiting the RSV-induced cytopathic effect by 50%. Various potent anti-RSV tool compounds are used as positive controls for antiviral activity.

[3] = Cytotoxicity assay in HEp-2 cells; assay type: cell-based; conditions: human, uninfected HEp-2 cells, CellTiter Glo
Method: Cytotoxicity of tested compounds is determined in uninfected HEp-2 cells in parallel with the antiviral activity using the cell viability reagent in a similar fashion as described before for other cell types (Cihlar et al., Antimicrob Agents Chemother. 2008, 52(2):655-65.). The same protocol as for the determination of antiviral activity is used for the measurement of compound cytotoxicity except that the cells are not infected with RSV. Instead, an uninfected cell mixture at the same density is added at 20 ul/well to plates containing prediluted compounds, also at 100 nl/sample. Assay plates are then incubated for 4 days followed by a cell viability test using the same CellTiter Glo reagent addition and measurement of luminescent readouts. Untreated cell and cells treated at 2 uM puromycin (Sigma, St. Louis, Mo.) serve as 100% and 0% cell viability control, respectively. The percent of cell viability is calculated for each tested compound concentration relative to the 0% and 100% controls and the CC50 value is determined by non-linear regression as a compound concentration reducing the cell viability by 50%.

[4] = Cytotoxicity assay in MT-4 cells; assay type: cell-based; conditions: human, Cell-Titer Glo
Method: The MT-4 cell line was obtained from the NIH AIDS Research and Reference Reagent Program (Germantown, Md.) and cultured in RPMI-1640 medium (Irvine Scientific, Santa Ana, Calif., Cat #9160) supplemented with 10% FBS, 100 units/mL penicillin, 100 units/mL streptomycin, and 2 mM L-Glutamine. The MT-4 cells were passaged twice per week to maintain cell densities below 0.6×10^6 cells/mL. Complete RPMI-1640 media containing 100× concentrations of 3-fold serially diluted compound, ranging from 26 nM to 530 μM, were stamped in quadruplicate into black 384-well plates. After compound addition, 2×10^3 MT-4 cells were added to each well using a MicroFlo liquid dispenser (BioTek, Winooski, Vt.) and the cells were cultured for 5 days at 37° C. in a 5% CO2 incubator. Following the incubation the cells were allowed to equilibrate to 25° C. and cell viability was determined by adding 25 μL of Cell-Titer Glo viability reagent. The mixture was incubated for 10 minutes at 25° C., and the luminescence signal was quantified on a Victor Luminescence plate reader. The CC50 value is defined as the concentration of compound that reduces cell viability by 50% as determined by the Cell-Titer Glo signal. The data were analyzed using Pipeline Pilot Plate Data Analytics Collection software (Version 7.0, Accelrys, San Diego, Calif.). CC50 values were calculated from a non-linear regression analysis using a 4-parameter sigmoidal dose-response equation: Y=Bottom+(Top−Bottom)/(1+10^[(Log CC50−X)*HillSlope]) where the Top and Bottom were fixed at 100% and 0% cell viability, respectively. CC50 values were calculated as the average±standard deviation of 3 independent experiments.

[5] = 96 h, HEp-2 cells infected with RSV A2, 4 days, Cell TiterGlo, read-out: EC50

T1 sequence (P28887 whole entry): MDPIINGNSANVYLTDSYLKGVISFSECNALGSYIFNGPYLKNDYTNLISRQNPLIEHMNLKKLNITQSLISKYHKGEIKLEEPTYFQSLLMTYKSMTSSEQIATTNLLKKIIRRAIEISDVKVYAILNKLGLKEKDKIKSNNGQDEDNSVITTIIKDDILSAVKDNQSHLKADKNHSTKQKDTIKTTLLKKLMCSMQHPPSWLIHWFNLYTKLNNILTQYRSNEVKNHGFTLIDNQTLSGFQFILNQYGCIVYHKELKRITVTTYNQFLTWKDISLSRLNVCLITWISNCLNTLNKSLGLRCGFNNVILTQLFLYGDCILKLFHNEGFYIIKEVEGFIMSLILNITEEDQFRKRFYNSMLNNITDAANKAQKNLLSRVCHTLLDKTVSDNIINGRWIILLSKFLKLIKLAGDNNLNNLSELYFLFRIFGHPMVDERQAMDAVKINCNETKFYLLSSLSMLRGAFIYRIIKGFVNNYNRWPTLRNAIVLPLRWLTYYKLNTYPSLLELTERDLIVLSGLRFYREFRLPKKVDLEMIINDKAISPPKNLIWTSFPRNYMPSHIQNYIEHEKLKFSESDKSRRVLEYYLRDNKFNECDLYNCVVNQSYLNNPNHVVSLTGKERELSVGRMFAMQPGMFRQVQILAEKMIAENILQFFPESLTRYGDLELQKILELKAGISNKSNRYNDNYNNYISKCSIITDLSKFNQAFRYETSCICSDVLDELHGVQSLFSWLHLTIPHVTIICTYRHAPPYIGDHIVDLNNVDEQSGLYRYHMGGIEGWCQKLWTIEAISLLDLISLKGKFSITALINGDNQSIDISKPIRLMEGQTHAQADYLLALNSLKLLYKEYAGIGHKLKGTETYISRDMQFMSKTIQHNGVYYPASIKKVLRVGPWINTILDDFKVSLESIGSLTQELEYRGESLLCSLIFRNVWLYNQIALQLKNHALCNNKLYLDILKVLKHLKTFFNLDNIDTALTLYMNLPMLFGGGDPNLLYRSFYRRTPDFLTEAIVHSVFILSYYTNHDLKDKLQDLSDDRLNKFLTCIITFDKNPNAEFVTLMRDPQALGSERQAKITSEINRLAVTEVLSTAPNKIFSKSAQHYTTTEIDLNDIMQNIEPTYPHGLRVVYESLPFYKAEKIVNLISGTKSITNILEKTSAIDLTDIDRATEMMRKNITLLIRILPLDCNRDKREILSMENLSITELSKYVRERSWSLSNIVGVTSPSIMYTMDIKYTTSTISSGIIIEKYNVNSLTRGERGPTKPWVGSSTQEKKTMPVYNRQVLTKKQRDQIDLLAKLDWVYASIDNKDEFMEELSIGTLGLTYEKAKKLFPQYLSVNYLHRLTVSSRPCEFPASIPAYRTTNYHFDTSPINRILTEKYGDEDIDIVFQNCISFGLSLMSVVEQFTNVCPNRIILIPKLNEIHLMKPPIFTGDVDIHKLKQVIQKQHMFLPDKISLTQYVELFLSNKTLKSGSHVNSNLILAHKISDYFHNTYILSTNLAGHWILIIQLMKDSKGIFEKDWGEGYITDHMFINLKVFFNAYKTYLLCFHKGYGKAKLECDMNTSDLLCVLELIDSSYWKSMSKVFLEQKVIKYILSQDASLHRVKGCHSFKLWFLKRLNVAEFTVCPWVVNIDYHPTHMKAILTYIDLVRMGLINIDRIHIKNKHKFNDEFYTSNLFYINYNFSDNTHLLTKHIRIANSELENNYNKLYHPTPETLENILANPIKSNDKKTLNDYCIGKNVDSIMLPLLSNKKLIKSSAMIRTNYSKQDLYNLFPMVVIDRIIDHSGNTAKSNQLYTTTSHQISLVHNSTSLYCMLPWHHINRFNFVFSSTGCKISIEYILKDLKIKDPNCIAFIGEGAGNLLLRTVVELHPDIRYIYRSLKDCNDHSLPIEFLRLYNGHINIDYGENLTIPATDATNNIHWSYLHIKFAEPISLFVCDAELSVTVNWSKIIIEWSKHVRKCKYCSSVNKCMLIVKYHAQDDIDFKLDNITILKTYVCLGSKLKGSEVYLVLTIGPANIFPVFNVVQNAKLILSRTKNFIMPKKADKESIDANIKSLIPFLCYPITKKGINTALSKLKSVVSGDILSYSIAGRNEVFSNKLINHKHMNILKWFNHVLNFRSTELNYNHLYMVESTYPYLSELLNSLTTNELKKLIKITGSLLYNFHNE
T1 sequence (P03421 whole entry, further chain): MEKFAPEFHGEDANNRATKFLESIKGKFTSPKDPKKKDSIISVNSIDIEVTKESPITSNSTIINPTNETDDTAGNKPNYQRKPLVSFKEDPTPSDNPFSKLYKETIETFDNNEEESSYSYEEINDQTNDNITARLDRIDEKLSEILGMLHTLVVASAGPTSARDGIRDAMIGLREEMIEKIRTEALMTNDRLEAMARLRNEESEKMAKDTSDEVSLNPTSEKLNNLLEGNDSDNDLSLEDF

| SMILES | IC50 [1] [µM] | CC50 at 4 days [3] [µM] | CC50 at 5 days [4] [µM] | further results |
| --- | --- | --- | --- | --- |
| C[C@@]1(O)[C@H](O)[C@@H](COP(=O)(O)OP(=O)(O)OP(=O)(O)O)O[C@H]1c1ccc2c(N)ncnn12 [((2R,3R,4R,5S)-5-(4-aminopyrrolo[2,1-f][1,2,4]triazin-7-yl)-3,4-dihydroxy-4-methyltetrahydrofuran-2-yl)methyl tetrahydrogen triphosphate, reference compound] | 8.5 | – | – | – |
| C[C@@]1(F)[C@H](O)[C@@H](COP(=O)(O)OP(=O)(O)OP(=O)(O)O)O[C@H]1c1ccc2c(N)ncnn12 [((2R,3R,4R,5S)-5-(4-aminopyrrolo[2,1-f][1,2,4]triazin-7-yl)-4-fluoro-3-hydroxy-4-methyltetrahydrofuran-2-yl)methyl tetrahydrogen triphosphate, reference compound] | > 100 | – | – | – |
| N#C[C@]1(COP(=O)(O)OP(=O)(O)OP(=O)(O)O)O[C@@H](c2ccc3c(N)ncnn23)[C@H](F)[C@@H]1O [Example 6, ((2R,3R,4R,5S)-5-(4-aminopyrrolo[1,2-f][1,2,4]triazin-7-yl)-2-cyano-4-fluoro-3-hydroxytetrahydrofuran-2-yl)methyl tetrahydrogen triphosphate] | 0.086 | – | – | – |
| C#C[C@]1(COP(=O)(O)OP(=O)(O)OP(=O)(O)O)O[C@@H](c2ccc3c(N)ncnn23)[C@H](F)[C@@H]1O [Example 7, ((2R,3R,4R,5S)-5-(4-aminopyrrolo[1,24][1,2,4]triazin-7-yl)-2-ethynyl-4-fluoro-3-hydroxytetrahydrofuran-2-yl)methyl tetrahydrogen triphosphate] | 1 | – | – | – |
| N#C[C@]1(COP(=O)(O)OP(=O)(O)OP(=O)(O)O)O[C@@H](c2ccc3c(N)ncnn23)[C@H](O)[C@@H]1O [Example 8, ((2R,3S,4R,5S)-5-(4-aminopyrrolo[1,2-f][1,2,4]triazin-7-yl)-2-cyano-3,4-dihydroxytetrahydrofuran-2-yl)methyl tetrahydrogen triphosphate] | 0.025 | – | – | – |
| [N-]=[N+]=N[C@]1(COP(=O)(O)OP(=O)(O)OP(=O)(O)O)O[C@@H](c2ccc3c(N)ncnn23)[C@H](O)[C@@H]1O [Example 9, ((2R,3S,4R,5S)-5-(4-aminopyrrolo[2,1-f][1,2,4]triazin-7-yl)-2-azido-3,4-dihydroxytetrahydrofuran-2-yl)methyl tetrahydrogen triphosphate] | 0.12 | – | – | – |
| C[C@]1(CO)O[C@@H](c2ccc3c(N)ncnn23)[C@H](F)[C@@H]1O [Example 24, (2R,3R,4R,5S)-5-(4-aminopyrrolo[2,1-f][1,2,4]triazin-7-yl)-4-fluoro-2-(hydroxymethyl)-2-methyltetrahydrofuran-3-ol] | – | > 100 | 11 | EC50 [2, 5]: 1 µM; EC50 ([2]; HEp-2 anti-RSV activity, read-out: EC50 (HEp-2 anti-RSV activity)): < 100 µM |
| N#C[C@]1(CO)O[C@@H](c2cc(F)c3c(N)ncnn23)[C@H](O)[C@@H]1O [Example 25, (2R,3S,4R,5S)-5-(4-amino-5-fluoropyrrolo[2,1-f][1,2,4]triazin-7-yl)-3,4-dihydroxy-2-(hydroxymethyl)tetrahydrofuran-2-carbonitrile] | – | > 100 | > 93 | EC50 [2, 5]: 9.2 µM |
| CCOC(=O)[C@H](C)NP(=O)(OC[C@@]1(C#N)O[C@@H](c2ccc3c(N)ncnn23)[C@H](O)[C@@H]1O)Oc1ccccc1 (stereo partly drawn) [Example 35, (2S)-ethyl 2-(((((2R,3S,4R,5S)-5-(4-aminopyrrolo[2,1-f][1,2,4]triazin-7-yl)-2-cyano-3,4-dihydroxytetrahydrofuran-2-yl)methoxy)(phenoxy)phosphoryl)amino) propanoate] | – | > 50 | 47 | EC50 ([2]; HEp-2, 96 h): 0.34 µM |
